Literature values, collected in Sander's compilation of Henry's law constants (doi:10.1093/bja/45.3.282).

Assay: Henry solubility constant Hcp at 310 K (mol/(m3 Pa))
Settings: reference: Steward et al. (1973); cited value

Compound | Henry solubility constant Hcp at 310 K
FC(F)(F)C(Cl)Br (centres undefined) [1-bromo-1-chloro-2,2,2-trifluoroethane] | 0.00031
FC(F)OC(Cl)C(F)(F)F (centres undefined) [1-chloro-2,2,2-trifluoroethyl difluoromethyl ether] | 0.00024
COC(F)(F)C(Cl)Cl [2,2-dichloro-1,1-difluoro-1-methoxyethane] | 0.0017
FC(F)OC(F)(F)C(F)Cl (centres undefined) [2-chloro-1,1,2-trifluoroethyl difluoromethyl ether] | 0.0003
C=COCC(F)(F)F [(2,2,2-trifluoroethoxy)-ethene] | 0.00033
CCCl [chloroethane] | 0.00047
C1CC1 [cyclopropane] | 8.1e-05
CCOCC [diethyl ether] | 0.005
[N-]=[N+]=O [dinitrogen monoxide] | 0.00018
C=COC=C [divinyl ether] | 0.00054
C=C [ethene] | 3.5e-05
[Kr] [krypton] | 2e-05
ClC=C(Cl)Cl [trichloroethene] | 0.00066
[Xe] [xenon] | 3.3e-05
